Values quoted from earlier work in patent US20080275000A1, “COMPOSITIONS FOR REDUCING, AMELIORATING, TREATING, OR PREVENTING CONDITION OF DRY EYE AND METHODS OF MAKING AND USING SAME” (priority 2007, published 2008).
Where two headings read alike, the source gives them in different places.

Assays:
[1] = buffering agent pH range
[2] = Table 1, only or first printed value

Row | pKa [2] | pKa (Table 1, second printed value) | SMILES | also measured
1 | 3.89 | 5.91 | O=C(O)[C@@H]1CCC[C@H]1C(=O)O (relative stereo) [1,2-trans-cyclopentanedicarboxylic acid] | 
2 | 4.18 | 5.93 | O=C(O)[C@H]1CCC[C@H](C(=O)O)C1 (relative stereo) [1,3-trans-cyclohexanedicarboxylic acid] | 
3 | 4.40 | 5.45 | O=C(O)[C@H]1CC[C@H](C(=O)O)C1 (relative stereo) [1,3-trans-cyclopentanedicarboxylic acid] | 
4 | 3.82 | 6.70 | O=C(O)CC1(CC(=O)O)CCCC1 [1,1-cyclopentanediacetic acid] | 
5 | 4.44 | 5.79 | O=C(O)[C@H]1CC[C@@H](C(=O)O)CC1 [1,4-cis-cyclohexanedicarboxylic acid] | 
6 |  |  | COCCN(CC(=O)O)CC(=O)O [2-methoxyethyliminodiacetic acid] | pKa (first listed value): 2.2; pKa (second listed value): 8.96
7 |  |  | CSCCN(CC(=O)O)CC(=O)O [2-methylthioethyliminodiacetic acid] | pKa (first listed value): 2.1; pKa (second listed value): 8.91
8 |  |  | O=S(=O)(O)CCN(CCO)CCO [BES, N,N-bis{2-hydroxyethyl}2-aminoethanesulfonic acid] | pH in the range of [1]: 6.4-7.8
9 |  |  | O=C(O)CN(CCN(CC(=O)O)CC(=O)O)CCN(CC(=O)O)CC(=O)O [DTPA, diethylenetriaminepentaacetic acid] | two pKa values (bound stated for two pKa values): greater than or equal to 6.30
10 |  |  | O=S(=O)(O)CCN1CCN(CCO)CC1 [HEPES, N-{2-hydroxyethyl}peperazine-N′-{2-ethanesulfonic acid}] | pH in the range of [1]: 6.8-8.2
11 |  |  | O=S(=O)(O)CCCN1CCOCC1 [MOPS, 3-{N-morpholino}propanesulfonic acid] | pH in the range of [1]: 6.5-7.9
12 |  |  | O=C(O)CN(CCS(=O)(=O)O)CC(=O)O [N-2-sulfoethyliminodiacetic acid] | pKa (first listed value): 1.92; pKa (second listed value): 2.28; pKa (third listed value): 8.16
13 |  | 5.41 | O=C(O)CCCCCCCC(=O)O [azelaic acid] | 
14 |  |  | O=C(O)CNCC(=O)O [iminodiacetic acid] | pKa (first listed value): 2.98; pKa (second listed value): 9.89
15 |  |  | O=C(O)c1cccnc1 [nicotinic acid] | pKa (first listed value): 10.09; pKa (fourth listed value): 2.86; pKa (second listed value): 9.14; pKa (third listed value): 6.92
16 | 4.46 |  | CCCOc1ccc(C(=O)O)cc1 [p-n-propoxybenzoic acid] | 
17 |  | 5.42 | O=C(O)CCCCCC(=O)O [pimelic acid] | 
18 | 4.52 | 5.4 | O=C(O)CCCCCCC(=O)O [suberic acid] | 
19 | 4.85 |  | CCCCC(=O)O [valeric acid] | 
20 | 4.25 | 6.22 | CC(CC(=O)O)CC(=O)O [β-methylglutaric acid] | 

Row | SMILES | pKa [2] | pKa (Table 1, second printed value) | also measured
21 | CC1(C(=O)O)CCC(C(=O)O)C1(C)C (stereo not drawn) [(+) camphoric acid] | 4.72 |  | 
22 | CC(=O)C1C(=O)C=C(C)OC1=O (centres unmarked) [dehydroacetic acid] | 5.40 |  | 
23 | CCCC(=O)OO [n-peroxybutyric acid] | 8.2 |  | 
24 | CCCCOc1ccc(C(=O)O)cc1 [p-n-butoxybenzoic acid] | 4.53 |  | 
25 | CC(=O)OO [peroxyacetic acid] | 8.2 |  | 
26 | O=COO [peroxyformic acid] | 7.1 |  | 
